Data: patent US8754242B2, “Herbicides” (Syngenta Crop Protection LLC, priority 2007, dated 2014)

Assays:
Assay type in all cases: in vivo
[1] = tested on: Alopecurus myosuroides (ALOMY); test: Test Example 1 pre-emergence herbicidal activity; settings: Alopecurus myosuroides, 480 h, rate 250 g/ha, evaluated 20 days later, read-out: Pre-emergence activity ALOMY (100=total damage to plant; 0=no damage to plant)
Method in brief: (§1)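 Greenhouse pot test; spray application pre-emergence (1 d after sowing) or post-emergence (10 d growth). Rating 0–100% damage; pre read at 20 d, post at 15 d.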

Avena fatua (AVEFA) [2] = test: Test Example 1 pre-emergence herbicidal activity; settings: Avena fatua, 480 h, rate 250 g/ha, evaluated 20 days later, read-out: Pre-emergence activity AVEFA (100=total damage to plant; 0=no damage to plant)
Method in brief: as §1

[3] = tested on: Digitaria sanguinalis (DIGSA); test: Test Example 1 pre-emergence herbicidal activity; settings: Digitaria sanguinalis, 480 h, rate 250 g/ha, evaluated 20 days later, read-out: Pre-emergence activity DIGSA (100=total damage to plant; 0=no damage to plant)
Method in brief: as §1

[4] = tested on: Echinochloa crus-galli (ECHCG); test: Test Example 1 pre-emergence herbicidal activity; settings: Echinochloa crus-galli, 480 h, rate 250 g/ha, evaluated 20 days later, read-out: Pre-emergence activity ECHCG (100=total damage to plant; 0=no damage to plant)
Method in brief: as §1

Lolium perenne (LOLPE) [5] = test: Test Example 1 pre-emergence herbicidal activity; settings: Lolium perenne, 480 h, rate 250 g/ha, evaluated 20 days later, read-out: Pre-emergence activity LOLPE (100=total damage to plant; 0=no damage to plant)
Method in brief: as §1

Setaria faberi (SETFA) [6] = test: Test Example 1 pre-emergence herbicidal activity; settings: Setaria faberi, 480 h, rate 250 g/ha, evaluated 20 days later, read-out: Pre-emergence activity SETFA (100=total damage to plant; 0=no damage to plant)
Method in brief: as §1

[7] = tested on: Alopecurus myosuroides (ALOMY); test: Test Example 1 post-emergence herbicidal activity; settings: 360 h, rate 125 g/ha, evaluated 15 days later, read-out: Post-emergence activity ALOMY (100=total damage to plant; 0=no damage to plant)
Method in brief: as §1

Avena fatua (AVEFA) [8] = test: Test Example 1 post-emergence herbicidal activity; settings: 360 h, rate 125 g/ha, evaluated 15 days later, read-out: Post-emergence activity AVEFA (100=total damage to plant; 0=no damage to plant)
Method in brief: as §1

[9] = tested on: Digitaria sanguinalis (DIGSA); test: Test Example 1 post-emergence herbicidal activity; settings: 360 h, rate 125 g/ha, evaluated 15 days later, read-out: Post-emergence activity DIGSA (100=total damage to plant; 0=no damage to plant)
Method in brief: as §1

[10] = tested on: Echinochloa crus-galli (ECHCG); test: Test Example 1 post-emergence herbicidal activity; settings: 360 h, rate 125 g/ha, evaluated 15 days later, read-out: Post-emergence activity ECHCG (100=total damage to plant; 0=no damage to plant)
Method in brief: as §1

Lolium perenne (LOLPE) [11] = test: Test Example 1 post-emergence herbicidal activity; settings: 360 h, rate 125 g/ha, evaluated 15 days later, read-out: Post-emergence activity LOLPE (100=total damage to plant; 0=no damage to plant)
Method in brief: as §1

Setaria faberi (SETFA) [12] = test: Test Example 1 post-emergence herbicidal activity; settings: 360 h, rate 125 g/ha, evaluated 15 days later, read-out: Post-emergence activity SETFA (100=total damage to plant; 0=no damage to plant)
Method in brief: as §1

Structure (SMILES) | pest or weed control at 250 g/ha [1] [%] | pest or weed control at 250 g/ha (Avena fatua (AVEFA) [2]) [%] | pest or weed control at 250 g/ha [3] [%] | pest or weed control at 250 g/ha [4] [%] | pest or weed control at 250 g/ha (Lolium perenne (LOLPE) [5]) [%] | pest or weed control at 250 g/ha (Setaria faberi (SETFA) [6]) [%] | pest or weed control at 125 g/ha [7] [%] | pest or weed control at 125 g/ha (Avena fatua (AVEFA) [8]) [%] | pest or weed control at 125 g/ha [9] [%] | pest or weed control at 125 g/ha [10] [%] | pest or weed control at 125 g/ha (Lolium perenne (LOLPE) [11]) [%] | pest or weed control at 125 g/ha (Setaria faberi (SETFA) [12]) [%]
CCc1cc(C)cc(CC)c1C1=C(O)[C@@H]2[C@@H]3O[C@@H](C[C@H]3c3cccc(C(C)=O)c3)[C@@H]2C1=O (racemic) [Example T174] | 30 | 30 | 40 | 0 | 30 | 0 | 70 | 70 | 70 | 80 | 40 | 50
CCc1cc(C)cc(CC)c1C1=C(O)[C@@H]2[C@@H]3O[C@@H](C[C@H]3c3ccc(F)c(F)c3)[C@@H]2C1=O (racemic) [Example T178] | 70 | 40 | 80 | 100 | 80 | 100 | 100 | 90 | 100 | 100 | 90 | 100
CCc1cc(C)cc(CC)c1C1=C(O)[C@@H]2[C@@H]3O[C@@H](C[C@H]3c3ccc(C)cc3)[C@@H]2C1=O (racemic) [Example T180] | 30 | 20 | 80 | 60 | 70 | 40 | 90 | 70 | 90 | 100 | 70 | 100
CCc1cc(C)cc(CC)c1C1=C(O)[C@@H]2[C@@H]3O[C@@H](C[C@H]3c3cc(OC)c(OC)c(OC)c3)[C@@H]2C1=O (racemic) [Example T181] | 40 | 40 | 90 | 100 | 80 | 70 | 90 | 90 | 80 | 100 | 80 | 100
CCc1cc(C)cc(CC)c1C1=C(O)[C@@H]2[C@@H]3O[C@@H](C[C@H]3c3cc([N+](=O)[O-])ccc3C)[C@@H]2C1=O (racemic) [Example T184] | 30 | 60 | 70 | 60 | 70 | 90 | 10 | 0 | 20 | 100 | 10 | 50
Cc1cc(C)c(C2=C(O)[C@@H]3[C@@H]4O[C@@H](C[C@H]4c4cc(C(F)(F)F)nc(C(F)(F)F)c4)[C@@H]3C2=O)c(C)c1 (racemic) [Example T199] | 0 | 50 | 100 | 80 | 60 | 60 | 100 | 100 | 100 | 100 | 60 | 80
Cc1cc(C)c(C2=C(O)[C@@H]3[C@@H]4O[C@@H](C[C@H]4c4ccc(C(F)(F)F)cn4)[C@@H]3C2=O)c(C)c1 (racemic) [Example T200] | 0 | 0 | 70 | 90 | 70 | 70 | 70 | 80 | 100 | 100 | 80 | 100
CCC(C)C(=O)OC1=C(c2c(C)cc(C)cc2C)C(=O)[C@@H]2[C@H]1[C@H]1CC[C@@H]2O1 (stereo partly drawn) [Example P9] | 100 | 100 | 90 | 80 | 100 | 80 | 100 | 90 | 80 | 90 | 100 | 80
Cc1cc(C)c(C2=C(OC(=O)C(C)C)[C@H]3[C@@H](C2=O)[C@@H]2CC[C@H]3O2)c(C)c1 [Example P10] | 100 | 100 | 100 | 100 | 100 | 80 | 100 | 90 | 80 | 100 | 100 | 80
CCc1cc(C)cc(CC)c1C1=C(OC(=O)CCCCCCC(=O)OC)[C@H]2[C@@H](C1=O)[C@@H]1CC[C@H]2O1 [Example P16] | 100 | 90 | 100 | 100 | 90 | 100 | 100 | 90 | 100 | 100 | 100 | 100
CCc1cc(C)cc(CC)c1C1=C(OC(=O)CC(C)C)[C@H]2[C@@H](C1=O)[C@@H]1CC[C@H]2O1 [Example P19] | 100 | 100 | 100 | 100 | 100 | 100 | 100 | 100 | 100 | 100 | 100 | 100
C=CCC(=O)OC1=C(c2c(CC)cc(C)cc2CC)C(=O)[C@@H]2[C@H]1[C@H]1CC[C@@H]2O1 [Example P23] | 80 | 90 | 100 | 100 | 100 | 100 | 100 | 90 | 70 | 100 | 90 | 80
CCc1cc(C)cc(CC)c1C1=C(OC(=O)C(C)C)[C@H]2[C@@H](C1=O)[C@@H]1CC[C@H]2O1 [Example P26] | 100 | 90 | 100 | 100 | 100 | 100 | 100 | 100 | 100 | 100 | 90 | 100
